Calls of active or inactive are those of the source. The rule behind the calls is not given here.
Columns and labels:
Histone deacetylase 8 = molecular target: T1, Histone deacetylase 8 (Homo sapiens, UniProt Q9BY41); assay: Inhibition of C-terminal His-tagged recombinant full length human HDAC8 extracted from baculovirus infected Sf9 insect cells preincubated for 5 mins followed by substrate addition and measured after 30 mins by fluorescence microplate reader analysis
T1 sequence (Q9BY41 whole entry): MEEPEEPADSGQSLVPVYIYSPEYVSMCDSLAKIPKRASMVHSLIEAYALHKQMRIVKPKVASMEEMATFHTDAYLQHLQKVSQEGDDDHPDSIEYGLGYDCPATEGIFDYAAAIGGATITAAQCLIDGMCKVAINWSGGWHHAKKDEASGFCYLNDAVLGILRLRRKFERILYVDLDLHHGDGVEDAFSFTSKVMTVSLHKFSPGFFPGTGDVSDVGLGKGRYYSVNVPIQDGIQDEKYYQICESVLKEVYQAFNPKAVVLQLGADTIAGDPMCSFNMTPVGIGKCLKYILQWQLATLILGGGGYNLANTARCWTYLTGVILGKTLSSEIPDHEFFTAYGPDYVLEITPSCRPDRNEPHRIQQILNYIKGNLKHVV

[1] = Apparent clearance during terminal phase in male Sprague-Dawley rat at 2 mg/kg, iv measured after 48 hrs by triple quadrupole mass spectrometric analysis; format: ADME, organism-based; settings: in vivo
[2] = AUC (0 to t) in male Sprague-Dawley rat at 10 mg/kg, po measured after 48 hrs by triple quadrupole mass spectrometric analysis; format: ADME, organism-based; settings: in vivo
[3] = molecular target: Histone deacetylase 1 (Mus musculus) (UniProt O09106); assay: Inhibition of HDAC1 in mouse B16-F10 cells assessed as increase in acetylated H3 level incubated for 12 hrs by Western blot analysis; format: cell-based
Jurkat = assay: Effect on Histone H3 protein level in human Jurkat T cells at 0.1 to 2 uM incubated for 12 hrs by Western blot analysis; format: functional, cell-based; settings: dose 0.1-2 µM
[4] = Toxicity in C57 mouse assessed as myelosuppression by measuring MPV level at 20 mg/kg/day, IG administered for 14 days by heat map analysis; format: organism-based; settings: in vivo, po, 336 h, time 14 day
B16-F10 = assay: cells; settings: Mus musculus, B16-F10, 48 h
[5] = Toxicity in C57 mouse assessed as myelosuppression by measuring MCHC level at 20 mg/kg/day, IG administered for 14 days by heat map analysis; format: organism-based; settings: in vivo, po, 336 h, time 14 day
[6] = Toxicity in C57 mouse assessed as myelosuppression by measuring PCT level at 20 mg/kg/day, IG administered for 14 days by heat map analysis; format: organism-based; settings: in vivo, po, 336 h, time 14 day
[7] = molecular target: T2, Protein deacetylase HDAC6 (Mus musculus) (UniProt Q9Z2V5); assay: In vivo inhibition of HDAC6 in C57BL/6 mouse model implanted with mouse B16-F10 cells assessed as increase in acetylated alpha-tubulin protein level in tumor at 20 mg/kg/day, ip administered for 14 days by Western blot analysis; format: functional, organism-based; settings: time 14.0 day
T2 sequence (whole entry): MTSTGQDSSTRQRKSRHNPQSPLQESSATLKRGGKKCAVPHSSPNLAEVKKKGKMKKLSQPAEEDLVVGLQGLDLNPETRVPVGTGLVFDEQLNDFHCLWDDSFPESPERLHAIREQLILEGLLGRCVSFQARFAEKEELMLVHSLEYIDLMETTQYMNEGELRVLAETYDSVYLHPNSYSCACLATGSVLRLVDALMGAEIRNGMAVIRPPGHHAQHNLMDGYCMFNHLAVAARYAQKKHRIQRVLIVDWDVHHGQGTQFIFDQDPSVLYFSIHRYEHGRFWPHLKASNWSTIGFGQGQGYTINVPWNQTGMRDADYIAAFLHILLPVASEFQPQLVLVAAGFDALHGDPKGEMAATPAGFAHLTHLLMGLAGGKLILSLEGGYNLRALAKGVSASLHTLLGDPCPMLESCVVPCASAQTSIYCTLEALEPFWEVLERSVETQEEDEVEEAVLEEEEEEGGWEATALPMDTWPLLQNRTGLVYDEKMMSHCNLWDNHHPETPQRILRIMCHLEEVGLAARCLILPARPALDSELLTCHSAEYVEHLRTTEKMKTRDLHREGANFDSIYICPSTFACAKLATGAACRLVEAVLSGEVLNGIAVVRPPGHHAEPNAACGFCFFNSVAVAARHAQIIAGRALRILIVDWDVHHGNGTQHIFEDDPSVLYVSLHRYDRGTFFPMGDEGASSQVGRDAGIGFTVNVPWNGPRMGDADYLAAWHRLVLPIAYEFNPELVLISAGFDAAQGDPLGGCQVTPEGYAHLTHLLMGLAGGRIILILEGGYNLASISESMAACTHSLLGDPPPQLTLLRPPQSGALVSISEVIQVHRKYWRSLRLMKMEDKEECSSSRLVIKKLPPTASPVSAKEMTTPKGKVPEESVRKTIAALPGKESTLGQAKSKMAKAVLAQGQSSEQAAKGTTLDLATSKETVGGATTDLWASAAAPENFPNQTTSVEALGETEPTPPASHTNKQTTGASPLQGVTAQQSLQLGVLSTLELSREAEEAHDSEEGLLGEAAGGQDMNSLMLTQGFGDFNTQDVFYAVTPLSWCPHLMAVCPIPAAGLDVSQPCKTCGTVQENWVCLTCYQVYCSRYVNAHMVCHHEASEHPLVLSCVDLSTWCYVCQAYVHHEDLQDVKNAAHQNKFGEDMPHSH

Sequence of Histone deacetylase 1 (Mus musculus) (O09106 whole entry): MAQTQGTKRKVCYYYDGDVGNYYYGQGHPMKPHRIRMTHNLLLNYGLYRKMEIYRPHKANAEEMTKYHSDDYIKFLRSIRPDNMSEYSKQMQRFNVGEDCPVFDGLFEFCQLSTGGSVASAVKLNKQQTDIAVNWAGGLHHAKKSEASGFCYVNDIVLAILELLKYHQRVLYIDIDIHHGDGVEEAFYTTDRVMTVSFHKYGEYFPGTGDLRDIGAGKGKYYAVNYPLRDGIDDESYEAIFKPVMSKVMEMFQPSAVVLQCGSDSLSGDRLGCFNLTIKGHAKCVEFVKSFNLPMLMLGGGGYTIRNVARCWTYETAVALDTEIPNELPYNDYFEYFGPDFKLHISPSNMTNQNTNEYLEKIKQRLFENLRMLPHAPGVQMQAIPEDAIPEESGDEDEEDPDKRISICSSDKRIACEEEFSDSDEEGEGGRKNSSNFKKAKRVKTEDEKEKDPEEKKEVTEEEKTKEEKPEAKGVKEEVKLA

Question: Which IC50 (Histone deacetylase 8) does the source give for `COc1nc(-c2cccc(-c3ccccc3)c2C)ccc1CNCCCCCCC(=O)NO` here?
Answer: > 10 µM

Question: What about the CLz/F [1] of the same molecule?
Answer: 16.2 mL/min/kg

Question: And the AUC(0-t) at 48 h [2]?
Answer: 872 ng·h/mL

Question: What about the inhibition [3] of the same molecule?
Answer: inactive

Question: What about the Activity (Jurkat) of the same molecule?
Answer: inactive

Question: What about the Activity [4] of the same molecule?
Answer: Non-toxic

Question: What about the IC50 (B16-F10) of the same molecule?
Answer: 8.1 µM

Question: What about the Activity [5] of the same molecule?
Answer: Non-toxic

Question: What about the Activity [6] of the same molecule?
Answer: Non-toxic

Question: And the inhibition [7]?
Answer: Active

— ChEMBL document CHEMBL6153170 (J Med Chem, 2025)
